The target in one experiment is T1, nLucOGG1 in HeLa cells (Homo sapiens, UniProt O15527).
T1 construct: thermal shift read by NanoGlo luminescence
Put plainly: Cellular Thermal Shift Assay to measure compound affinity for nLucOGG1 in HeLa cells (CETSA DTm). It is filed as cell-based. Conditions: 10 μM compound, 37° C. 60 min, Tm vs DMSO control. On the procedure: Biological Example 2: Cellular Thermal Shift Assay to Measure Compound Affinity for ^nLucOGG1 in HeLa Cells (CETSA DTm)
Cell Culture and Transfection of Hela Cells with ^nLucOGG1: For all tests, Hela cells were maintained in growth medium, Dulbecco's Minimum Eagle Medium (Multicell: Cat #319-005-CL) supplemented with 10% heat-inactivated fetal bovine serum (Gibco: Cat #12484-028) at 37° C. and 5% CO2 in a humidified tissue culture incubator. Transient transfections were performed using the Lonza 4-D Nucleofector X unit according to the manufacturer's protocol (Lonza Cat #V4XC-1024). Briefly, for each transfection, 1.2×10^6 cells were centrifuged at 1000 RPM for 5 minutes at room temperature before being diluted in 100 μL SE solution containing 18% v/v supplement and 1.5 μg pNF1-N-empty or pNF1-N-OGG1a vector. The total volume was transferred to a 100 μL nucleofection cuvette prior to transfer to the apparatus where HeLa cell nucleofection protocol CN-114 was executed. Following nucleofection, 500 μL complete media was added to the cells in the cuvette before transferring to a 6-well dish containing 1.5 mL of complete media. Cells were left to incubate for 48 hours before performing all cellular thermal shift experiments.
Cellular Thermal Shift Assays for Target Engagement (CETSA): Forty-eight hours following nucleofection, cells were washed once with DPBS−/−(Multicell: Cat #311-425-CL) and lifted with 0.25% Trypsin-EDTA (Multicell: Cat #325-043-CL) prior to dilution in growth medium and centrifugation at 1000 RPM for 5 minutes at room temperature. The resulting cell pellet was then resuspended in growth medium, cells were counted and the volume adjusted to 500 k cells/mL (2×).
For delta Tm determination, OGG1 inhibitor compounds were dissolved in DMSO to a final working concentration of 20 mM. Working solutions were then diluted in complete media to 20 μM or 0.1% DMSO for the vehicle control (2×). 2×OGG1 inhibitor compound solutions or 0.1% DMSO control were then pre-dispensed into MicroAmp Optical 96-well PCR reaction plates (Applied Biosystems: Cat #4346906) at 50 μL/well. Next, 50 μL or 25 k cells/well from the 2× cell suspension was added to the pre-loaded PCR plates. All plates were prepared as duplicates, covered with adhesive plate sealers (Perkin Elmer: Cat #6050185) and left to incubate at 37° C. for 60 minutes. During incubation, sufficient NanoGlo luciferase assay reagents (Promega: Cat #N1120) were left to equilibrate to room temperature in the dark. Immediately before heating the plates, the NanoGlo substrate was mixed with the NanoGlo buffer at a 1:50 ratio. The thermal cycler (Veriti 96-Well Thermal Cycler, Thermo Fisher Scientific) was allowed to reach the designated temperature prior to placement of the PCR plate into the heating block. For Tm determination experiments, duplicate plates containing a fixed concentration of test compound (10 μM final) as well as vehicle control were prepared to perform a 12-point temperature gradient spanning 37-70° C. for 3 minutes. Therefore, two thermal cycler protocols were set up covering two 6-step temperature gradients ranging from 37-52° C. and 52-70° C. Plates were then allowed to cool at room temperature for 5 minutes after the heat treatment followed by transfer of 75 μL of the reaction into a 96-well white polystyrene microplate (Corning: Cat #CLS3903) and addition of 75 μL of the prepared NanoGlo mixture. Microplates were then left to shake in the dark for 5 minutes before total luminescence was measured on a SpectraMax IX3 plate reader. The luminescence value obtained at each temperature was normalized to the luminescence obtained at 37° C. and the ratio obtained was plotted against the temperature. A Boltzman Sigmoidal non-linear regression was applied to the resulting data to determine Tm values and the difference between the Tm value for a given OGG1 inhibitor relative to the DMSO vehicle control was the delta Tm.

The target of a further experiment is hOGG1 (Homo sapiens, UniProt O15527). Put plainly: Surface Plasma Resonance with hOGG1 to measure compound affinity (OGG1 SPR Kd). The conditions noted are these: Biacore T-200, immobilized his-tagged OGG1; pH 7.4; 2% DMSO; single-cycle kinetics. The class given is binding. Also on record: Protein His-hOGG1 (12-323) was prepared. On the procedure:
Surface Plasma Resonance with hOGG1 to Measure Compound Affinity (OGG1 SPR Kd); All the SPR studies were performed on a Biacore T-200 instrument (Cytiva life sciences) using series S NTA sensor chip (cat #BR-1005-32, Cytiva life sciences). Recombinant his-tagged OGG1 (mol. wt. 36003; ChemPartner, Shanghai, China) was immobilized on NTA sensor chip via Ni^2+/NTA chelation using NTA reagent kit (Cytiva life sciences; cat #289950) as per manufacturer's recommended protocol. The running buffer during immobilization contained HEPES (20 mM, pH 7.4), 150 mM NaCl, 0.5 mM TCEP (tris(2-carboxyethyl)phosphine), and 0.005% Tween-20. NTA sensor chip (experimental cell) was first conditioned by injecting regeneration solution (350 mM EDTA, flow rate 30 μL/min, 2 injections 60 each). Additional wash with 50 mM NaOH was used whenever the chip was regenerated (flow rate 30 μL/min, 1 injection of 60 s). The sensor chip was then activated with 0.5 mM NiCl2 (flow rate 10 μL/min, 2 injection of 60 s, leading to a baseline increase of ~40 RU), and the excess Ni^2+ was removed using immobilization buffer containing 3 mM EDTA (flow rate 10 μL/min, 1 injection of 60 s). Finally, OGG1 (diluted to 6.2 μg/mL in running buffer) was injected on the activated sensor chip at a flow rate of 10 μL/min until immobilization level reached ~6000 RU. Any loosely bound protein was removed by passing the immobilization buffer overnight at 20 μL/min. At this point, the drift in baseline was ~0.01 RU/s and the final immobilization level was ~2500 RU. Reference cell was left untreated. SPR binding experiments were performed using binding buffer (20 mM HEPES (pH 7.4), 150 mM NaCl, 0.5 mM TCEP, 0.005% Tween-20, and 2% DMSO) at a flow rate of 30 μL/min. Single-cycle kinetics approach was used for binding analysis which consisted of sequential injections of increasing concentrations of test compound (a 3-fold serial dilution with 5 concentrations; highest 750 or 1500 nM; with final DMSO concentration at 2%) over the immobilized protein without regeneration step between each sample injection. Each injection was 45 seconds long (contact time), followed by a final dissociation of 600 sec. The Biacore T-200 Evaluation software 3.1 (GE Healthcare) was used to determine kinetic parameters from SPR data. All the reported sensograms were reference subtracted and corrected for refractive index contributions from solvent using 8-point solvent correction (1.4 to 2.8% DMSO in binding buffer). Data were fit to both steady state and 1:1 kinetic model to obtain Kon, Koff and binding affinity (Kd).
On the technique in general: Surface plasmon resonance follows binding to a sensor surface in real time, without labels.

Sequence of hOGG1 (O15527 12-323): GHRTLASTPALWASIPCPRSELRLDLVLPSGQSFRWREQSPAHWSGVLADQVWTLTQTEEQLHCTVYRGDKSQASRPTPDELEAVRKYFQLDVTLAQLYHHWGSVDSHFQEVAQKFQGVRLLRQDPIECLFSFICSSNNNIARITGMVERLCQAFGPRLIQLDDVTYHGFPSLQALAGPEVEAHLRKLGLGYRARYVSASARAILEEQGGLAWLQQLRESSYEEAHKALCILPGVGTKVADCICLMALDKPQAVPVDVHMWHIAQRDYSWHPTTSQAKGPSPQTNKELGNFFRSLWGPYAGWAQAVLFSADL
T1 sequence (O15527 whole entry): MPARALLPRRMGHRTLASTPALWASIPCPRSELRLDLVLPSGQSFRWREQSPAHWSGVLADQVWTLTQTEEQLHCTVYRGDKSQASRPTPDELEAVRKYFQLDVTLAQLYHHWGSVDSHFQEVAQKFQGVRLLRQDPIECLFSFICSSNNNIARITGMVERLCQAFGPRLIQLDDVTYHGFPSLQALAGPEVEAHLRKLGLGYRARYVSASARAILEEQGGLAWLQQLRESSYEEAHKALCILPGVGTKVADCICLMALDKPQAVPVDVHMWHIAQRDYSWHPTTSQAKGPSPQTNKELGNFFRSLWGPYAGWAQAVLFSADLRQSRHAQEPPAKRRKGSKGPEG

For orientation: ΔTm means the change in melting temperature against a reference sample. One may read the Kd as the concentration at which binding is half-saturated. A low value points to tighter binding. With `COc1ccc(NC(=O)[C@H]2CC[C@@H](N3Cc4c(C)ccnc4NC3=O)CC2)cc1` [Example 15, (1s,4s)-N-(4-methoxyphenyl)-4-(5-methyl-2-oxo-1,2-dihydropyrido[2,3-d]pyrimidin-3(4H)-yl)cyclohexanecarboxamide], the shift in melting temperature (ΔTm) at 10 µM on nLucOGG1 in HeLa cells lay in the range of 6 to 8 °C. For the same molecule, the dissociation constant Kd on hOGG1 fell in the range of 10 to 100 nM.

On to `COc1ccc(NC(=O)[C@H]2CC[C@@H](N3Cc4c(C)ccnc4NC3=O)CC2)cc1C` [Example 16, (1s,4s)-N-(4-Methoxy-3-methylphenyl)-4-(5-methyl-2-oxo-1,2-dihydropyrido[2,3-d]pyrimidin-3(4H)-yl)cyclohexanecarboxamide], for which, at nLucOGG1 in HeLa cells, the thermal shift (ΔTm) at 10 µM lay within 8 to 10 °C. Besides, the Kd on hOGG1 is not above 10 nM.

Turning to `COc1cc(NC(=O)[C@H]2CC[C@@H](N3Cc4c(C)ccc(CNC(C)=O)c4NC3=O)CC2)ccc1C` [Example 17, (1s,4s)-4-(8-(Acetamidomethyl)-5-methyl-2-oxo-1,2-dihydroquinazolin-3(4H)-yl)-N-(3-methoxy-4-methylphenyl)cyclohexanecarboxamide], the ΔTm at 10 µM on nLucOGG1 in HeLa cells is more than 10 °C. The Kd at hOGG1 was not above 10 nM.

`COc1cc(NC(=O)[C@H]2CC[C@@H](N3Cc4c(C)cnc(CNC(C)=O)c4NC3=O)CC2)ccc1C` [Example 19, (1s,4s)-4-(8-(Acetamidomethyl)-5-methyl-2-oxo-1,2-dihydropyrido[3,4-d]pyrimidin-3(4H)-yl)-N-(3-methoxy-4-methylphenyl)cyclohexanecarboxamide]: the ΔTm at 10 µM at nLucOGG1 in HeLa cells was in the range of 8 to 10 °C. Also, on hOGG1, the Kd is not above 10 nM.

For `COc1cc(NC(=O)[C@H]2CC[C@@H](N3Cc4c(C)cc(CN)cc4NC3=O)CC2)ccc1C` [Example 28, (1s,4s)-4-(7-(Aminomethyl)-5-methyl-2-oxo-1,2-dihydroquinazolin-3(4H)-yl)-N-(3-methoxy-4-methylphenyl)cyclohexanecarboxamide], at nLucOGG1 in HeLa cells, the ΔTm at 10 µM was more than 10 °C. The same molecule yielded a Kd on hOGG1 not above 10 nM.

For the molecule `COc1cc(NC(=O)[C@H]2CC[C@@H](N3Cc4c(C)cc(N5CC6(COC6)C5)cc4NC3=O)CC2)ccc1C` [Example 30, (1s,4s)-N-(3-Methoxy-4-methylphenyl)-4-(5-methyl-2-oxo-7-(2-oxa-6-azaspiro[3.3]heptan-6-yl)-1,2-dihydroquinazolin-3(4H)-yl)cyclohexanecarboxamide], the ΔTm at 10 µM at nLucOGG1 in HeLa cells was 8 to 10 °C. For the same molecule, the Kd at hOGG1 was 100 to 1000 nM.

Take `COc1cc(NC(=O)[C@H]2CC[C@@H](N3Cc4c(C)ccc(N5CC6(COC6)C5)c4NC3=O)CC2)ccc1C` [Example 35, (1s,4s)-N-(3-Methoxy-4-methylphenyl)-4-(5-methyl-2-oxo-8-(2-oxa-6-azaspiro[3.3]heptan-6-yl)-1,2-dihydroquinazolin-3(4H)-yl)cyclohexanecarboxamide]: the ΔTm at 10 µM on nLucOGG1 in HeLa cells was in the range of 6 to 8 °C. Moreover, the Kd at hOGG1 lay in the range of 10 to 100 nM.

For the molecule `COc1cc(NC(=O)[C@H]2CC[C@@H](N3Cc4c(C)ccnc4NC3=O)CC2)ccc1C` [Example 41, (1s,4s)-N-(3-Methoxy-4-methylphenyl)-4-(5-methyl-2-oxo-1,2-dihydropyrido[2,3-d]pyrimidin-3(4H)-yl)cyclohexanecarboxamide], the ΔTm at 10 µM on nLucOGG1 in HeLa cells lay in the range of 6 to 8 °C. On hOGG1, this molecule had a dissociation constant Kd of 10 to 100 nM.

Consider `COc1cc(NC(=O)[C@H]2CC[C@@H](N3Cc4c(C)ccc(OCC5CNC5)c4NC3=O)CC2)ccc1C` [Example 44, (1s,4s)-4-(8-(Azetidin-3-ylmethoxy)-5-methyl-2-oxo-1,2-dihydroquinazolin-3(4H)-yl)-N-(3-methoxy-4-methylphenyl)cyclohexanecarboxamide], for which the thermal shift (ΔTm) at 10 µM on nLucOGG1 in HeLa cells was in the range of 8 to 10 °C. The same molecule showed a Kd at hOGG1 of 10 to 100 nM.

Consider `COc1cc(NC(=O)[C@H]2CC[C@@H](N3Cc4c(C)ccc(OC5CNC5)c4NC3=O)CC2)ccc1C` [Example 45], for which the thermal shift (ΔTm) at 10 µM at nLucOGG1 in HeLa cells is 8 to 10 °C. This molecule gave a Kd at hOGG1 of 10 to 100 nM.

Turning to `COc1cc(NC(=O)[C@H]2CC[C@@H](N3Cc4c(C)ccc(OC)c4NC3=O)CC2)ccc1C` [Example 47, (1s,4s)-N-(3-Methoxy-4-methylphenyl)-4-(8-methoxy-5-methyl-2-oxo-1,2-dihydroquinazolin-3(4H)-yl)cyclohexanecarboxamide], on nLucOGG1 in HeLa cells, the ΔTm at 10 µM lay in the range of 6 to 8 °C. At hOGG1, this molecule registered an equilibrium dissociation constant (Kd) of 10 to 100 nM.

As for `COc1cc(NC(=O)[C@H]2CC[C@@H](N3Cc4c(C)ccc(CN)c4NC3=O)CC2)ccc1C` [Example 58, (1s,4s)-4-(8-(aminomethyl)-5-methyl-2-oxo-1,2-dihydroquinazolin-3(4H)-yl)-N-(3-methoxy-4-methylphenyl)cyclohexanecarboxamide], at nLucOGG1 in HeLa cells, the shift in melting temperature (ΔTm) at 10 µM fell in the range of 8 to 10 °C. Further, the Kd on hOGG1 was in the range of 10 to 100 nM.

As for `COc1cc(NC(=O)[C@H]2CC[C@@H](N3Cc4c(C)ccc(C#N)c4NC3=O)CC2)ccc1C` [Example 59, (1s,4s)-4-(8-cyano-5-methyl-2-oxo-1,2-dihydroquinazolin-3(4H)-yl)-N-(3-methoxy-4-methylphenyl)cyclohexanecarboxamide], on nLucOGG1 in HeLa cells, the ΔTm at 10 µM is 8 to 10 °C. At hOGG1, the Kd was in the range of 10 to 100 nM.

Turning to `COc1cc(NC(=O)[C@H]2CC[C@@H](N3Cc4ccccc4NC3=O)CC2)ccc1C` [Example 67, (1s,4s)-N-(3-methoxy-4-methylphenyl)-4-(2-oxo-1,2-dihydroquinazolin-3(4H)-yl)cyclohexanecarboxamide], the ΔTm at 10 µM at nLucOGG1 in HeLa cells lay within 6 to 8 °C. Also, on hOGG1, the Kd is 10 to 100 nM.

As for `COc1cc(NC(=O)[C@H]2CC[C@@H](N3Cc4c(C)cc(-c5nnco5)cc4NC3=O)CC2)ccc1C` [Example 92, (1s,4s)-N-(3-methoxy-4-methylphenyl)-4-(5-methyl-7-(1,3,4-oxadiazol-2-yl)-2-oxo-1,2-dihydroquinazolin-3(4H)-yl)cyclohexanecarboxamide], the ΔTm at 10 µM on nLucOGG1 in HeLa cells lay within 8 to 10 °C. Moreover, the equilibrium dissociation constant (Kd) on hOGG1 was in the range of 10 to 100 nM.

(Values after patent US20260317356A1, “SMALL MOLECULE MODULATORS OF OGG1” (AZKARRA THERAPEUTICS, INC., priority 2023, published 2026).)
